Reference: paper PMC5903342 (Oxidative Medicine and Cellular Longevity, 2018)

How the values were obtained:
HepG2 cells = test: Flow cytometry cell cycle analysis; type: cell-based, Human; settings: 24 h
Procedure: The cells (1 × 10^5) were washed in PBS solution and centrifuged at 400 ×g for 5 min, and after, the cells were suspended in DNA staining solution (0.3% Triton X-100 and 50 μg/mL propidium iodide (PI) in a 43 mM citrate buffer), as previously described. After 45 minutes of treatment with 50 μg/mL ribonuclease A (Sigma, EUA), the PI fluorescence was determined (10,000 events per sample) in a Gallios flow cytometer (Beckman Coulter, USA). Data were analyzed by the Summit v4.3 software. The experiments were done at least three times, and statistical analysis was performed by one-way ANOVA followed by a Tukey's post hoc test.

[1] = tested on: Salmonella enterica serovar typhimurium TA104; test: Antimutagenicity assay (Salmonella/microsome), strain TA104; type: cell-based; settings: TA104, cotreatment
From the text: Salmonella enterica serovar typhimurium (S. typhimurium) strains TA100, TA1535, TA104, and TA102 from the authors' laboratory stock were used as described by Maron and Ames in the antimutagenicity assay.
We carried out the coexposure protocol of the antimutagenicity assay to investigate the potential of the compound to protect against alkylation-mediated genetic mutation in S. typhimurium TA100, TA102, TA104, and TA1535 strains according to Ajith and Soja. The test proceeded both in the absence and presence of a metabolic activation system (4% S9 mix, Aroclor preinduced, from MOLTOX Inc., USA). DMSO 1% served as the negative control. […] The mixtures were incubated in a shaker at 37°C (preincubation) under light protection. After a total of 60 min of cotreatment, the mixtures were added to and mixed with 2 mL top agar containing 0.05 mmol/L L-histidine and D-biotin for the S. typhimurium strains. Each of these was then spread on a minimal glucose agar (1.5% agar, Vogel-Bonner medium E, containing 2% glucose) plate. After the top agar solidified, the plates were incubated at 37°C for 60–72 h. Each tester strain was assayed in triplicate and repeated at least twice, and the number of revertant colonies was counted for each tester strain and treatment group. The counts of revertant colonies were obtained to build a dose-response curve and calculate the percentage of reduction.

[2] = tested on: S. enterica serovar typhimurium-tested strains; test: Cytotoxic effect in bacterial strains (CFU survival); type: cell-based, Salmonella enterica serovar typhimurium; settings: presence and absence of exogenous metabolic activation (data not shown)
Procedure: To determine the cytotoxic effect, after 60 min incubation, the assay mixtures were diluted in 0.9% NaCl (w/v) to obtain a suspension containing 2 × 10^2 cells/mL. A suitable aliquot (100 μL) of this suspension was plated on nutrient agar (0.8% bacto nutrient broth (Difco), 0.5% NaCl, and 1.5% agar). The plates were then incubated at 37°C for 24 h, and the colony-forming units (CFU) were counted to obtain the percentage of survival. All the experiments were done in triplicate and were repeated at least twice.

[3] = +S9, CPA (150 μM), atorvastatin 20 μM
[4] = +S9, CPA (150 μM), atorvastatin 100 μM
[5] = +S9, CPA (150 μM), atorvastatin 200 μM
[6] = +S9, CPA (150 μM), atorvastatin 1000 μM
[7] = −S9, MMS (100 μM), atorvastatin 20 μM
[8] = −S9, MMS (100 μM), atorvastatin 100 μM
[9] = −S9, MMS (100 μM), atorvastatin 200 μM
[10] = −S9, MMS (100 μM), atorvastatin 1000 μM

In the case of CC(C)c1c(C(=O)Nc2ccccc2)c(-c2ccccc2)c(-c2ccc(F)cc2)n1CC[C@@H](O)C[C@@H](O)CC(=O)O [AVA, atorvastatin], the Cell cycle pattern (HepG2 cells; 25 μM AVA alone, in comparison to the control) is reported as “did not induce alterations”, the “Effect on G1, S and G2 phases” value (HepG2 cells; AVA and CPA cotreatment) is reported as “did not affect” and the “Effect on G1 and S phases” value (HepG2 cells; AVA and MMS cotreatment) is reported as “did not affect”. The “Number of cells in the G2 phase” value (HepG2 cells; AVA and MMS cotreatment) was “restored”, the “sub-G1 percentage of cells” value (HepG2 cells; cotreatment 20 μM MMS + AVA 1 μM) was 12% and the “sub-G1 percentage of cells” value (HepG2 cells; cotreatment 20 μM MMS + AVA 10 μM) was 4%. For the same compound, the “sub-G1 percentage of cells” value (HepG2 cells; cotreatment 20 μM MMS + AVA 25 μM) was 2%, the polyploid subpopulation (HepG2 cells; cotreatment AVA + 20 μM MMS) was 3-4% and the “sub-G1 percentage of cells” value (HepG2 cells; cotreatment AVA + CPA, no dose dependence) was 3-4%. The Cell cycle pattern (HepG2 cells; cotreatment with 25 μM AVA in MMS-exposed (20 μM) cells) was “restored the cell cycle pattern”, the “% reduction” value [1, 3] was 19.29% and the “His+ (revertant colonies)” value [1, 3] was 969 ± 54. For the same compound, the “% reduction” value [1, 4] was 25%, the “His+ (revertant colonies)” value [1, 4] was 933 ± 38 and the “% reduction” value ([1]; +S9, CPA (150 μM), atorvastatin 100 μM, listed as Atorvastatin) was 25.00^∗ %. The “% reduction” value [1, 5] was 29%, the “His+ (revertant colonies)” value [1, 5] was 905 ± 42 and the “% reduction” value ([1]; +S9, CPA (150 μM), atorvastatin 200 μM, listed as Atorvastatin) was 29.29^∗ %. For the same compound, the “% reduction” value [1, 6] was 41%, the “His+ (revertant colonies)” value [1, 6] was 829 ± 11 and the “% reduction” value ([1]; +S9, CPA (150 μM), atorvastatin 1000 μM, listed as Atorvastatin) was 41.43^∗ %. For the same compound, the “% reduction” value [1, 7] was 19.36%, the “His+ (revertant colonies)” value [1, 7] was 801 ± 32 and the “% reduction” value [1, 8] was 24.19%. The “His+ (revertant colonies)” value [1, 8] was 776 ± 64, the “% reduction” value [1, 9] was 32.3% and the “His+ (revertant colonies)” value [1, 9] was 736 ± 91. The “% reduction” value ([1]; −S9, MMS (100 μM), atorvastatin 200 μM, listed as Atorvastatin) was 32.26^∗ %, the “% reduction” value [1, 10] was 55.7% and the “His+ (revertant colonies)” value [1, 10] was 620 ± 28. For the same compound, the “% reduction” value ([1]; −S9, MMS (100 μM), atorvastatin 1000 μM, listed as Atorvastatin) was 55.65^∗ % and the “Cytotoxic effect to bacterial strains” value [2] was “no cytotoxic effect”.
